Assay results from patent US20090004145A1, “COMPOSITIONS AND METHODS INVOLVING GENE THERAPY AND PROTEASOME MODULATION” (priority 2006, published 2009).
In brackets after ≈: the same amount, converted by molar mass. Where two headings read alike, the source gives them in different places. *1 amine or outer side, *2 acyl side, *3 side chain or, on linkers, in order; H or OH if unused. Where a SMILES comes first, the peptide text is derived from it. Bridges are numbered along the chain shown (N, C = ends). Roman numbers before positions name the chains, in order. [ ]: non-standard residue; d: D form. Actinocin(9to1) = Cc1c2oc3c(C)ccc(C(=O)[*:1])c3nc-2c(C(=O)[*:2])c(N)c1=O; NMeV = CN[C@H](C(=O)O)C(C)C; Sar = CNCC(=O)O

Legend:
[1] = test system: chronic myelogenous leukemia; conditions: adults with previously untreated chronic myelogenous leukemia; cited from earlier work
[2] = in vivo; cited from earlier work
2008 cells [3] = assay: Tumor cell killing, trypan blue assay; type: cell-based, human; conditions: CDDP 25 μM, vector 3000 vp/cell, 72 h
Protocol: FIG. 3. Ad-mda7 plus CDDP treatment sensitizes CDDP-resistant tumor cells. CDDP-resistant (2008/C*13 R) and sensitive (2008) ovarian tumor cells were plated in six-well plates and treated with PBS, CDDP (25 μM) Ad-luc, Ad-mda7 (3000 vp/cell), Ad-mda7 plus CDDP or Ad-luc plus CDDP. Treatment schedule was as follows: pretreatment with CDDP for 1 h, washed with PBS to remove any residual CDDP and then infect with Ad-mda7 for 3 h in serum free medium followed by replenishment of complete medium. Cells were harvested at 72 h after treatment and number of dead cells counted by the trypan blue assay.
FIG. 8. CDDP-resistant tumor cells are more sensitive to Ad-mda7. […] Cells were harvested on day 3 and day 5 after treatment and number of dead cells counted by the trypan blue assay and analyzed for apoptotic markers by western blotting. […]
Next, CDDP-resistant (2008/C*13 R) and sensitive (2008) ovarian tumor cells were plated in six-well plates and treated with PBS, CDDP (25 μM) Ad-luc, Ad-mda7 (3000 vp/cell), Ad-mda7 plus CDDP or Ad-luc plus CDDP. […] Cells were harvested at 72 h after treatment and number of dead cells counted by the trypan blue assay.
CDDP-Resistant Tumor Cells are More Sensitive to Ad-mda7. […] Cells were harvested on day 3 and day 5 after treatment and number of dead cells counted by the trypan blue assay and analyzed for apoptotic markers by western blotting. […]

2008 cells [4] = assay: XTT cell viability assay of CDDP-treated ovarian cancer cell lines; type: cell-based, human; conditions: CDDP 1 h, then 72 h incubation
Protocol: (§1) FIG. 1. Determination of IC50 values for CDDP-Treated Ovarian Cancer Cell Lines. Human ovarian tumor (2008 and 2008/C*13R) tumor cells (2×10^3) seeded in 96-well plates were treated with various doses of CDDP (0, 10, 20, 30, 60, 80, 100 μM). After 1 h of treatment, CDDP containing medium was removed and fresh medium added to the wells. Cells were incubated for 72 h following which were subjected to XTT assay to determine cell viability. Untreated cells served as controls.
(§2) Determination of IC50 values for CDDP-Treated Ovarian Cancer Cell Lines. Human ovarian tumor (2008 and 2008/C*13R) tumor cells (2×10^3) seeded in 96-well plates were treated with various doses of CDDP (0, 10, 20, 30, 60, 80, 100 μM). After 1 h of treatment, CDDP containing medium was removed and fresh medium added to the wells. Cells were incubated for 72 h following which were subjected to XTT assay to determine cell viability. Untreated cells served as controls. […] (FIG. 1)

2008/C*13R cells = assay: as above; type: cell-based, human; conditions: CDDP 1 h, then 72 h incubation
Protocol: as §1, §2

[5] = cited from earlier work
[6] = humans, intravenous administration; cited from earlier work
[7] = mice; cited from earlier work
[8] = cited from earlier work; remark: listed apart in the source
[9] = usual clinical doses; cited from earlier work
multiple myeloma = conditions: oral administration; cited from earlier work
[10] = 15 minutes after intravenous administration; cited from earlier work
[11] = in vivo; cited from earlier work; remark: listed apart in the source
Hodgkin's disease = conditions: cited from earlier work

Q: For `CS(=O)(=O)OCCCCOS(C)(=O)=O` [Busulfan, 1,4-butanediol dimethanesulfonate], which “patients obtaining hematologic remission” value [1] is on record?
A: Its value is “Approximately 90%”.

Q: Which results are given for `[NH2][Pt]([NH2])([Cl])[Cl]` [CDDP, Cisplatin]?
A: oral absorption [2]: not absorbed orally; percent killing (2008 cells [3]): similar; IC50 (2008 cells [4]): 30 µM; IC50 (2008/C*13R cells): 145 µM

Q: Which heat stability ([5]; mitomycin) does the source give for `CO[C@@]12[C@H](COC(N)=O)C3=C(C(=O)C(C)=C(N)C3=O)N1C[C@@H]1N[C@@H]12` [Mitomycin] here?
A: Its heat stability is “heat stable”.

Q: And the “clearance from the serum” value [6]?
A: Its value is “rapidly cleared”.

Q: For Bleomycin, which “concentrations in hematopoietic tissue / bone marrow” value [7] is on record?
A: The value was “low concentrations”.

Q: And the “concentrations in skin, lungs, kidneys, peritoneum and lymphatics” value [7]?
A: The value was “high concentrations”.

Q: What about the solubility in water ([5]; bleomycin) of the same compound?
A: The solubility in water was “freely soluble in water”.

Q: And the “administered dose recovered in the urine as active bleomycin” value ([8]; humans)?
A: Its value is 60% to 70.

Q: And the “plasma or serum terminal elimination half-life” value ([8]; patients with creatinine clearance <35 mL per minute, as clearance decreases)?
A: Its value is “increases exponentially”.

Q: Which solubility in water ([5]; carmustine) does the source give for `O=NN(CCCl)C(=O)NCCCl` [Carmustine, 1,3bis-(2-chloroethyl)-1-nitrosourea] here?
A: The solubility in water was “poorly soluble”.

Q: With `CC[C@]1(O)C[C@H]2CN(CCc3c([nH]c4ccccc34)[C@@](C(=O)OC)(c3cc4c(cc3OC)N(C=O)[C@H]3[C@@](O)(C(=O)OC)[C@H](OC(C)=O)[C@]5(CC)C=CCN6CC[C@]43[C@@H]65)C2)C1` [Vincristine] as the compound, how does the “peak concentration in plasma” value [9] read?
A: The value was “approximately 0.4 mM”.

Q: For `N[C@@H](Cc1ccc(N(CCCl)CCCl)cc1)C(=O)O` [Melphalan, 4-[bis(2-chloroethyl)amino]-L-phenylalanine], which solubility in water ([5]; melphalan) is on record?
A: Its solubility in water is “insoluble in water”.

Q: What about the “patients showing a favorable response” value (multiple myeloma) of the same compound?
A: The value was “about one third to one half”.

Q: Which “solubility (clear yellow solution)” value ([5]; camptothecin in DMSO 1N sodium hydroxide) does the source give for `CC[C@@]1(O)C(=O)OCc2c1cc1n(c2=O)Cc2cc3ccccc3nc2-1` [Camptothecin] here?
A: Its value is 50 mg/mL (≈ 144 mM).

Q: And the storage stability ([5]; camptothecin, 2-8° C., dry, airtight, light-resistant)?
A: Its storage stability is “at least two”.

Q: And the water solubility ([5]; camptothecin)?
A: Its water solubility is “poor water-solubility”.

Q: Which “ionization at a physiological pH” value ([5]; lomustine) does the source give for `O=NN(CCCl)C(=O)NC1CCCCC1` [Lomustine, 1-(2-chloro-ethyl)-3-cyclohexyl-1 nitrosourea] here?
A: Its value is “relatively unionized”.

Q: And the “solubility in 10% ethanol” value ([5]; lomustine)?
A: The value was 0.05 mg per ml.

Q: What about the “solubility in absolute alcohol” value ([5]; lomustine) of the same compound?
A: Its value is 70 mg per ml.

Q: And the solubility in water ([5]; lomustine)?
A: Its solubility in water is under 0.05 mg per ml.

Q: What about the tissue levels [10] of the same compound?
A: The tissue levels was “comparable to plasma levels”.

Q: With `Cc1c2oc3c(C)ccc(C(=O)N[C@@H]4C(=O)N[C@H](C(C)C)C(=O)N5CCC[C@H]5C(=O)N(C)CC(=O)N(C)[C@@H](C(C)C)C(=O)O[C@@H]4C)c3nc-2c(C(=O)N[C@@H]2C(=O)N[C@H](C(C)C)C(=O)N3CCC[C@H]3C(=O)N(C)CC(=O)N(C)[C@@H](C(C)C)C(=O)O[C@@H]2C)c(N)c1=O` [Actinomycin D] (I: T[dV]P[Sar][NMeV] / II: T[dV]P[Sar][NMeV]; ester I:1-I:C, II:1-II:C; linker I:N-II:N via Actinocin(9to1)) as the compound, how does the “passage of the blood-brain barrier” value [11] read?
A: Its value is “does not pass the blood-brain barrier”.

Q: For `CC[C@]1(O)C[C@@H]2CN(CCc3c([nH]c4ccccc34)[C@@](C(=O)OC)(c3cc4c(cc3OC)N(C)[C@H]3[C@@](O)(C(=O)OC)[C@H](OC(C)=O)[C@]5(CC)C=CCN6CC[C@]43[C@@H]65)C2)C1` [Vinblastine], which “cases with significant improvement” value (Hodgkin's disease) is on record?
A: The value was 50 to 90%.
